Data taken from ChEMBL document CHEMBL3044617, “N-[2(3-Carboxyl-9-benzyl-carboline-1-yl)ethyl-1-yl]-amino acids: correlation of spectral property with in vivo anti-tumor activity” (2012).
The source made the active and inactive calls. The calls are words filed in the database; no cut-off is given here.

Legend:
[1] = test system: DNA; test: Binding affinity to Bos taurus (calf) thymus DNA assessed as change in DNA viscosity; format: nucleic-acid assay
[2] = test system: DNA; test: Binding affinity to Bos taurus (calf) thymus DNA assessed as melting temperature at 20 uM (reference value: 60.3 degC); format: nucleic-acid assay
[3] = test system: DNA; test: Binding affinity to Bos taurus (calf) thymus DNA assessed as hypsochromic shift at 20 uM by UV spectra analysis; format: nucleic-acid assay
[4] = test system: CCRF S-180; test: Antitumor activity against Mus musculus (mouse) S180 cells xenografted in ICR Mus musculus (mouse) assessed as tumor growth inhibition at 89 umol/kg, ip qd for 7 days measured after 24 hr of last dose relative to control; format: functional; conditions: CCRF S-180, ip, read-out: TGI
[5] = test system: DNA; test: Binding affinity to Bos taurus (calf) thymus DNA assessed as hypochromic effect at 20 uM by UV spectra analysis; format: nucleic-acid assay
[6] = test system: DNA; test: Binding affinity to Bos taurus (calf) thymus DNA assessed as decrease in fluorescence intensity at 0.5 uM by fluorescence quenching assay; format: nucleic-acid assay; design: scale not given: the % may be the effect or the level left
[7] = test system: DNA; test: Binding affinity to Bos taurus (calf) thymus DNA assessed as negative band intensity at 100 uM after 24 hr by CD spectra analysis (reference value: -15209 +/- 245 deg cm2/dmol'-1); format: nucleic-acid assay
[8] = test system: DNA; test: Binding affinity to Bos taurus (calf) thymus DNA assessed as positive band intensity at 100 uM after 24 hr by CD spectra analysis (reference value: 21429 +/- 276 deg cm2/dmol'-1); format: nucleic-acid assay
[9] = test system: DNA; test: Binding affinity to Bos taurus (calf) thymus DNA assessed as bathochromic shift at 0.5 uM by fluorescence quenching assay; format: nucleic-acid assay
[10] = test system: DNA; test: Binding affinity to Bos taurus (calf) thymus DNA assessed as change melting temperature at 20 uM; format: nucleic-acid assay

| Structure (SMILES) | Activity [1] | Tm [2] [°C] | Activity [3] [nm] | inhibition in vivo at 89 µmol/kg [4] [%] | Activity [5] [%] | Activity [6] [%] | molecular ellipticity [7] [deg.cm2/dmol] | molecular ellipticity [8] [deg.cm2/dmol] | Activity [9] [nm] | ΔTm [10] [°C] |
| --- | --- | --- | --- | --- | --- | --- | --- | --- | --- | --- |
| C[C@@H](O)[C@H](NCCc1nc(C(=O)O)cc2c3ccccc3n(Cc3ccccc3)c12)C(=O)O | Active | 65.4 | 0 | -29.1 | 0 | 32.6 | -5800 | 17400 | 2.2 | 4.9 |
| O=C(O)c1cc2c3ccccc3n(Cc3ccccc3)c2c(CCN[C@@H](Cc2ccc(O)cc2)C(=O)O)n1 | Active | 72.2 | 4.8 | 48.6 | 30.5 | 58.7 | -1080 | 28900 | 4.4 | 11.9 |
| O=C(O)C[C@H](NCCc1nc(C(=O)O)cc2c3ccccc3n(Cc3ccccc3)c12)C(=O)O | Active | 73.2 | 3.4 | 34.7 | 32 | 63.9 | -36300 | 2750 | 8.2 | 12.9 |
| Nc1ccn([C@@H]2O[C@H](CO)[C@@H](O)[C@@H]2O)c(=O)n1 [CYTARABINE] | – | – | – | 54.8 | – | – | – | – | – | – |
| O=C(O)c1cc2c3ccccc3n(Cc3ccccc3)c2c(CCN[C@@H](CO)C(=O)O)n1 | Active | 71.1 | 4.8 | 35.3 | 29.6 | 42.4 | -23700 | 10100 | 4.6 | 10.8 |
